26 compounds from US12528818B2, “Compositions and methods for inhibition of RAS” (Leidos Biomedical Research, Inc., priority 2021, dated 2026) can be followed below.

A value given as a limit tells only on which side of the number the result lay.

The test relates to pERK in NCI-H358 cells. The test is described as follows: Cell-based pERK HTRF assay (pERK inhibition in H358 cells). The conditions noted are these: Homo sapiens, NCI-H358, 0.5 h, pERK inhibition IC50, NCI-H358 cells, 30 min incubation; read-out: PERK in H358 cell. (In general: In TR-FRET formats the signal depends on donor and acceptor labels being close together.)

As for `C=CC(=O)N1CCC(N(C)c2nc(OC[C@@]34CCCN3C[C@H](F)C4)nc3cc(-c4ccc(F)c5sc(N)c(C#N)c45)c(C#N)cc23)[C@H]1C` (stereo partly drawn) [Compound 387, 4-((1-acryloyl-2-methylpyrrolidin-3-yl)(methyl)amino)-7-(2-amino-3-cyano-7-fluorobenzo[b]thiophen-4-yl)-2-(((2R,7aS)-2-fluorotetrahydro-1H-pyrrolizin-7a(5H)-yl)methoxy)quinazoline-6-carbonitrile], the IC50 is less than 100 nM.

On to `C=CC(=O)N1CCC(N(C)c2nc(OC[C@@]34CCCN3C[C@H](F)C4)nc3c(C#N)c(-c4ccc(F)c5sc(N)c(C#N)c45)c(Cl)cc23)[C@H]1C` (stereo partly drawn) [Compound 388, 4-((1-acryloyl-2-methylpyrrolidin-3-yl)(methyl)amino)-7-(2-amino-3-cyano-7-fluorobenzo[b]thiophen-4-yl)-6-chloro-2-(((2R,7aS)-2-fluorotetrahydro-1H-pyrrolizin-7a(5H)-yl)methoxy)quinazoline-8-carbonitrile], for which the IC50 is less than 100 nM. The same measure for `C=CC(=O)N1CCC(N(C)c2nc(OC[C@@]34CCCN3C[C@H](F)C4)nc3cc(-c4ccc(F)c5sc(N)c(C#N)c45)ccc23)[C@H]1COC` (stereo partly drawn) [Compound 389, 4-(4-((1-acryloyl-2-(methoxymethyl)pyrrolidin-3-yl)(methyl)amino)-2-(((2R,7aS)-2-fluorotetrahydro-1H-pyrrolizin-7a(5H)-yl)methoxy)quinazolin-7-yl)-2-amino-7-fluorobenzo[b]thiophene-3-carbonitrile]: less than 100 nM; for `C=CC(=O)N1CC[C@@H](N(C)c2nc(OC[C@@]34CCCN3C[C@H](F)C4)nc3cc(-c4ccc(F)c5sc(N)c(C#N)c45)c(F)cc23)[C@H]1C` [Compound 390, 4-(4-((1-acryloyl-2-methylpyrrolidin-3-yl)(methyl)amino)-6-fluoro-2-(((2R,7aS)-2-fluorotetrahydro-1H-pyrrolizin-7a(5H)-yl)methoxy)quinazolin-7-yl)-2-amino-7-fluorobenzo[b]thiophene-3-carbonitrile]: less than 100 nM; for `C=CC(=O)N1CC[C@@H](N(C)c2nc(OC[C@@]34CCCN3C[C@H](F)C4)nc3cc(-c4ccc(F)c5sc(N)c(C#N)c45)c(F)cc23)[C@H]1COC` [Compound 391]: less than 100 nM. With `C=CC(=O)N1CCC(N(CC)c2nc(OC[C@@H]3C[C@@H](OC)CN3C)nc3c(F)c(-c4ccc(F)c5sc(N)c(C#N)c45)c(C(F)(F)F)cc23)[C@H]1C` (some centres unmarked) [Compound 392] the figure was less than 100 nM.

With `C=CC(=O)N1CC[C@@H](N(C)c2nc(OC[C@@]34CCCN3C[C@H](F)C4)nc3cc(-c4ccc(F)c5sc(N)c(C#N)c45)c(C#N)cc23)[C@H]1COC` [Compound 393], the IC50 is less than 100 nM. Regarding `C=CC(=O)N1CCC(N(C)c2nc(OC[C@@]34CCCN3C[C@H](F)C4)nc3c(C#N)c(-c4ccc(F)c5sc(N)c(C#N)c45)ccc23)[C@H]1COC` (some centres unmarked) [Compound 394], the IC50 was in the range of 100 to 1000 nM. With `C=CC(=O)N1CC[C@@H](N(C)c2nc(OC[C@@]34CCCN3C[C@H](F)C4)nc3c(F)c(-c4ccc(F)c5sc(N)c(C#N)c45)c(Cl)cc23)[C@H]1C` [Compound 395, 4-(4-((1-acryloyl-2-methylpyrrolidin-3-yl)(methyl)amino)-6-chloro-8-fluoro-2-(((2R,7aS)-2-fluorotetrahydro-1H-pyrrolizin-7a(5H)-yl)methoxy)quinazolin-7-yl)-2-amino-7-fluorobenzo[b]thiophene-3-carbonitrile] the figure was less than 100 nM. With `C=CC(=O)N1CCC(N(CC)c2nc(OC[C@@H]3CCCN3C)nc3c(F)c(-c4ccc(F)c5sc(N)c(C#N)c45)c(C(F)(F)F)cc23)[C@H]1C` (some centres unmarked) [Compound 396] the figure was less than 100 nM. With `C=CC(=O)N1CCC(N(C)c2nc(OC[C@@H]3C[C@@H](F)CN3C)nc3c(F)c(-c4ccc(F)c5sc(N)c(C#N)c45)c(C(F)(F)F)cc23)[C@H]1C` (some centres unmarked) [Compound 399] the figure was less than 100 nM; with `C=CC(=O)N1CCC(N(C)c2nc(OC[C@@H]3CCCN3C)nc3c(F)c(-c4ccc(F)c5sc(N)c(C#N)c45)c(C(F)(F)F)cc23)[C@H]1C` (some centres unmarked) [Compound 400], less than 100 nM; with `C=CC(=O)N1CC[C@@H](N(C)c2nc(OC[C@@]34CCCN3C[C@H](F)C4)nc3c(F)c(-c4ccc(F)c5sc(N)c(C#N)c45)c(C(F)(F)F)cc23)[C@H]1COC` [Compound 401], less than 100 nM.

On to `C=CC(=O)N1CCC(N(C)c2nc(OC[C@@]34CCCN3C[C@H](F)C4)nc3c(F)c(-c4ccc(F)c5sc(N)c(C#N)c45)ccc23)[C@H]1COC` (some centres unmarked) [Compound 402], for which the IC50 was less than 100 nM. With `C=CC(=O)N1CC[C@@H](N(CC)c2nc(OC[C@@]34CCCN3C[C@H](F)C4)nc3c(F)c(-c4ccc(F)c5sc(N)c(C#N)c45)c(C(F)(F)F)cc23)[C@H]1C` [Compound 403] the figure was less than 100 nM. For `C=CC(=O)N1CCC(N(C)c2nc(OC[C@@]34CCCN3C[C@H](F)C4)nc3c(C#N)c(-c4ccc(F)c5sc(N)c(C#N)c45)ccc23)[C@H]1C` (some centres unmarked) [Compound 404], the IC50 lay in the range of 100 to 1000 nM.

In the case of `C=CC(=O)N1CCC(N(CC)c2nc(OC[C@@H]3CC4(CC4)CN3C)nc3c(F)c(-c4ccc(F)c5sc(N)c(C#N)c45)c(C(F)(F)F)cc23)[C@H]1C` (some centres unmarked) [Compound 405], the IC50 is less than 100 nM. As for `C=CC(=O)N1C[C@H](C)N(c2nc(OC[C@@H]3C[C@@H](F)CN3C)nc3c(F)c(-c4ccc(F)c5sc(N)c(C#N)c45)c(C(F)(F)F)cc23)C[C@H]1C` [Compound 406], the IC50 was less than 100 nM. With `C=CC(=O)N1CCC(N(C)c2nc(OC[C@@H]3C[C@@H](OC)CN3C)nc3c(F)c(-c4ccc(F)c5sc(N)c(C#N)c45)c(C(F)(F)F)cc23)[C@H]1C` (some centres unmarked) [Compound 407], the IC50 was less than 100 nM.

As to `C=CC(=O)N1C[C@H](C)N(c2nc(OC[C@@H]3C[C@@H](OC)CN3C)nc3c(F)c(-c4ccc(F)c5sc(N)c(C#N)c45)c(C(F)(F)F)cc23)C[C@H]1C` [Compound 408], the IC50 was less than 100 nM. The same measure for `C=CC(=O)N1CCC(N(C)c2nc(OC[C@@H]3CC4(CC4)CN3C)nc3c(F)c(-c4ccc(F)c5sc(N)c(C#N)c45)c(C(F)(F)F)cc23)[C@H]1C` (some centres unmarked) [Compound 409]: less than 100 nM; for `C=CC(=O)N1C[C@H](C)N(c2nc(OC[C@@H]3CC4(CC4)CN3C)nc3c(F)c(-c4ccc(F)c5sc(N)c(C#N)c45)c(C(F)(F)F)cc23)C[C@H]1C` [Compound 410, 4-(4-((2S,5R)-4-acryloyl-2,5-dimethylpiperazin-1-yl)-8-fluoro-2-(((S)-5-methyl-5-azaspiro[2.4]heptan-6-yl)methoxy)-6-(trifluoromethyl)quinazolin-7-yl)-2-amino-7-fluorobenzo[b]thiophene-3-carbonitrile]: less than 100 nM. Consider `C=CC(=O)N1CCC(N(CC)c2nc(OC[C@@]34CCCN3C[C@H](F)C4)nc3c(C#N)c(-c4ccc(F)c5sc(N)c(C#N)c45)c(Cl)cc23)[C@H]1C` (some centres unmarked) [Compound 411], for which the IC50 was less than 100 nM. The same measure for `C=CC(=O)N1CCC(N(CC)c2nc(OC[C@@]34CCCN3C[C@H](F)C4)nc3c(F)c(-c4ccc(F)c5sc(N)c(C#N)c45)ccc23)[C@H]1COC` (some centres unmarked) [Compound 412]: 100 to 1000 nM; for `C=CC(=O)N1CCC(N(C)c2nc(OC[C@@]34CCCN3C[C@H](F)C4)nc3c(F)c(-c4ccc(F)c5sc(N)nc45)ccc23)[C@H]1C` (some centres unmarked) [Compound 413]: 100 to 1000 nM; for `C=CC(=O)N1CC[C@@H](N(CC)c2nc(OC[C@@]34CCCN3C[C@H](F)C4)nc3cc(-c4ccc(F)c5sc(N)c(C#N)c45)c(F)cc23)[C@H]1C` [Compound 414]: less than 100 nM.
